Data on nine molecules can be found in patent publication US20230382934A1, “HIGH ENTROPY OXIDES AND METHODS OF SYNTHESIS AND USE THEREOF” (Auburn University, priority 2022, published 2023).

The conditions of series [1]: cited from earlier work; for pMn: pH 7.4, 1.0 mM Mn(II) and ligand, previously characterized complexes; for log KML of the Mn(II) complex: other reported Mn(II)-binding ligands.
For series [2] the following is noted: cited from earlier work; for increase of relaxivity upon oxidation by excess H2O2: recently reported sensors.
Series [3] in a line: Stability of Fe(III) complexes by potentiometric pH titration (log KML). In kind it is physicochemical. To be noted: 25° C. As for the experimental part: (§1) The aqueous speciation of H4qp4 was previously determined. Those for its Fe(II) and Fe(III) complexes were assessed using a METROHM 765 Dosimat with a jacketed, airtight glass titration vessel. A Fisher Scientific Accumet Research AR15 pH meter was used to monitor the pH of the sample solutions during the titrations. The electrode was calibrated before each titration using commercially available standard solutions buffered to pH 4.0, 7.0, and 10.0. All samples were purged with argon prior to analysis and subsequently analyzed under an argon atmosphere at 25° C. to prevent carbonate contamination. All solution samples were prepared in solutions of 100 mM KCl in deionized Millipore water. The titrations investigating metal-ligand speciation were run with solutions that contained a 1:1 molar mixture of the ligand and FeCl2·(4H2O). Carbonate-free solutions of 0.10 M KOH and 0.10 M HCl were prepared using argon-saturated deionized Millipore water. The titration data were analyzed and fit to speciation models using the Hyperquad2006 program.

A short description of series [4]: Metal ion exchange with Fe(II) followed by UV/vis. Format: physicochemical. As for the experimental part:
FIG. 18, comprising FIG. 18A and FIG. 18B, depicts representative spectrophotometric spectra. FIG. 18A depicts spectrophotometric analysis of the reaction between 0.1 mM Fe(ClO4)2 and 0.1 mM 1 in MeCN at 298 K. The UV/vis spectra of the product formed from 0.1 mM Fe(ClO4)2 and 0.1 mM H4qp4 (blue) and that corresponding to 0.1 mM 1 are provided for comparison. FIG. 18B depicts spectrophotometric analysis of the reaction between 0.1 mM Fe(OTf)2 and 0.1 mM 1 in aqueous solutions containing 50 mM HEPES buffered to pH 7.00 at 298 K. The UV/vis spectrum of the product formed from 0.1 mM Fe(OTf)2 and 0.1 mM H4qp4 (blue) and that corresponding to 0.1 mM 1 are provided for comparison.

The nature of series [5]: Metal ion exchange with Zn(II) followed by 1H NMR. Format: physicochemical. The note with it: Example 2, 10 mM Fe(III) complex 3 and 20 mM Zn(ClO4)2, 48 h. As for the experimental part:
FIG. 19, comprising FIG. 19A and FIG. 19B, depicts representative NMR data. FIG. 19A depicts a reaction between 20 mM Zn(ClO4)2 and 10 mM 1 in CD3CN. The reaction equilibrated at 295 K for 24 h prior to data acquisition. FIG. 19B depicts the ^1H NMR spectrum of the product of the reaction between 10 mM Zn(ClO4)2 and 10 mM metal-free H4qp4.
FIG. 63, comprising FIG. 63A and FIG. 63B, depicts representative NMR data. FIG. 63A depicts the reaction between 20 mM Zn(ClO4)2 and 10 mM 3 in D20. The reaction equilibrated at 295 K for 48 h prior to data acquisition. FIG. 63B depicts a ^1H NMR spectrum of the product of the reaction between 10 mM Zn(ClO4)2 and 10 mM metal-free H4qp4 in D20.

The nature of series [6]: T1-weighted relaxivity, 3 T clinical MRI scanner. The source says: All MRI data were collected at the Auburn University MRI Research Center on a Siemens Verio open-bore 3-T MRI clinical scanner. A 15-channel knee coil was used to simultaneously image 12-15 samples. The imaging procedure was identical to those used for similar studies (Zhang, Q. et al., 2011, Inorg. Chem. 50, 9365; Yu, M. et al., 2014, J. Am. Chem. Soc., 136:12836; Yu, M. et al., 2017, Inorg. Chem., 56:2812; Yu, M. et al., 2012, Inorg. Chem. 51:9153). An inversion recovery (IR) sequence was used that featured a non-selective adiabatic inversion pulse followed by a slice-selective gradient recalled echo (GRE) readout after a delay period corresponding to the inversion time (TI) (Bernstein, M. A. et al., 2004, Handbook of MRI Pulse Sequences; Haacke, E. M. et al., 1999, Magnetic Resonance Imaging: Physical Principles and Sequence Design). The GRE was a saturation readout, such that only one line of k-space was acquired per repetition time (TR), in order to maximize both signal strength and the accuracy of the T1 estimates. […]
Image analysis was performed using custom Matlab programs (Mathworks, Natick, MA). The initial TI=4.8 ms image was used as a baseline to determine circular region of interest (ROI) boundaries for each sample; from these, the mean pixel magnitudes for each ROI were calculated. […]

The conditions of series [7]: Example 1, previously reported Mn(II) complex 3; cited from earlier work.
Series [8] is described as follows: Variable temperature 17O NMR, aquation number and water exchange of Mn(II) complexes. Format: physicochemical. The note with it: Example 1, Mn(II) complexes, 298 K. As for the experimental part:
FIG. 16 depicts plots of r2° as a function of temperature for 1 before and after oxidation by H2O2. Experimental conditions for pre-activated sensor (black squares): [1]=6.0 mM in 60 mM HEPES buffered to pH 7.4 and 10% (v/v) of 10% ^17OH2, B=9.4 T. Experimental conditions for activated sensor (red circles): [1]=2.5 mM in 60 mM MOPS buffered to pH 7.4 with 15 equiv. H2O2 and 10% (v/v) of 10% ^17OH2, B=9.4 T. NMR data acquisition began 15 min after the start of the oxidation reaction.
Aquation numbers (q) were calculated from the maximum ^17O transverse relaxivity, r2max°, and the equation: q=r2max°/510; Gale, Zhu, and Caravan previously used this relationship to estimate the inner-sphere hydration state of Mn(II) in coordination complexes (Gale, E. M. et al., 2013, J. Am. Chem. Soc., 135:18600). Relaxation rates were measured both for aqueous solutions containing Mn(II) complexes and for metal-free solutions buffered to pH 7.4. The linewidths at half-height of the signal were determined by a deconvolution procedure on the real part of the Fourier transformed spectra with a Lorentzian shape function in the data analysis module of Bruker Topspin 1.3® software. The measurements were performed with a commercial 5 mm Bruker broadband probe thermostat with a Bruker B-VT 3000 variable temperature unit. […]

Series [9] can be described thus: Stability of Fe(II) complexes by potentiometric pH titration (log KML). The note with it: 25° C. In kind it is physicochemical. On the procedure: as §1

Regarding `CC#N.O=S(=O)([O-])C(F)(F)F.O=S(=O)([O-])C(F)(F)F.Oc1ccc(O)c(CN(CCN(Cc2ccccn2)Cc2ccccn2)Cc2ccccn2)c1.[Mn+2]` [Complex 2], the pMn in series [1] is given as 7.25. Further, in [2], the “increase of relaxivity upon oxidation by excess H2O2” value is on record as 10%. Moreover, the “log KML” value in [3] is given as 38.84. The “Mn(II) displaced by an equimolar amount of Fe(II)” value in series [4] (Example 1, MeCN, by 15 h) is recorded as “approximately 10%”.
On to `O=S(=O)([O-])C(F)(F)F.O=S(=O)([O-])C(F)(F)F.[Fe+3].[O-]c1ccc(O)cc1CN1CCCNCCN(Cc2cc(O)ccc2O)CCCNCC1` [Complex 3, (1-(2,5-dihydroxybenzyl)-8-(2,5-dihydroxybenzylalkoxide)-1,4,8,11-tetraazacyclotetradecane)iron(III) triflate], for which the “Zn(II) complex with H4qp4 formed” value in [5] is “only trace amounts”. Moreover, the pMn in series [1] is on record as 5.36. In series [3], the “log KML” value was 33.80. In series [6] (Example 2, Fe(III) complex 3, 3 T, 50 mM HEPES pH 7.00, 298 K), this molecule registered a r1 of 0.87 mM⁻¹ s⁻¹. For the same molecule, the “Mn(II) displaced by an equimolar amount of Fe(II)” value in series [4] (Example 1, by 3 h) is given as 80%. The “r1 of pre-activated form” value in series [7] was 5.46 mM^−1 s^−. Besides, the “rate constant for water exchange (kex)” value in series [8] turned out to be 4.9e+06 s⁻¹.
As to `Oc1ccc(O)c(CN(CCN(Cc2ccccn2)Cc2cc(O)ccc2O)Cc2ccccn2)c1.[Br-].[Br-].[Mn+2]` [Complex 3], the “increase of relaxivity upon oxidation by excess H2O2” value in [2] is on record as 30%.
In the case of `O=C(O)CN1CCN(CC(=O)O)CCN(CC(=O)O)CCN(CC(=O)O)CC1` [DOTA^4−], the “log KML of the Mn(II) complex” value in series [1] is recorded as 19.89.
Regarding `O=C([O-])CN(CC(=O)[O-])C1CCCCC1N(CC(=O)[O-])Cc1ccccn1.[Fe+2]` (stereo not drawn) [Fe(II)-PyC3A], the “increase in relaxivity on oxidation to Fe(III)” value in series [2] (1.4 T) is 10 fold.
As for `NCCN1CCN(CC(=O)O)Cc2cccc(n2)CN(CC(=O)O)CC1` [PC2A-EA^2−], the “log KML of the Mn(II) complex” value in series [1] is given as 19.01.
For `O=C(O)CN(CC(=O)O)C1CCCCC1N(CC(=O)O)Cc1ccccn1` (stereo not drawn) [PyC3A^3−], the “log KML of the Mn(II) complex” value in series [1] is given as 14.14.
In [6] (Example 1, measured independently), `O.O.O.O.O.O.[Mn+2]` [[Mn(H2O)6]^2+] had a T1-weighted relaxivity of 5.26 mM^−1 s^−.
Consider “(1-(2,5-dihydroxybenzyl)-8-(2,5-dihydroxybenzylalkoxide)-1,4,8,11-tetraazacyclotetradecane)iron(II) triflate [Complex 1]”, for which the “log KML” value in series [9] turned out to be 27.16.
